The source of these data is patent US9834566B2, “Pyrazolopyrimidine macrocycles as inhibitors of human immunodeficiency virus replication” (priority 2014, dated 2017).

The test deals with recombinant NL-RLuc virus (NL4-3 with Renilla Luciferase gene). Kind of test: Inhibition of HIV replication (NL-RLuc luciferase reporter virus in MT-2 cells). Format: cell-based. The note with it: NL43, 120 h. An excerpt: Inhibition of HIV Replication:
A recombinant NL-RLuc proviral clone was constructed in which a section of the nef gene from NL4-3 was replaced with the Renilla Luciferase gene. This virus is fully infectious and can undergo multiple cycles of replication in cell culture. In addition, the luciferous reporter provides a simple and easy method for quantitating the extent of virus growth and consequently, the antiviral activity of test compounds. The plasmid pNLRLuc contains the proviral NL-Rluc DNA cloned into pUC18 at the PvuII site. The NL-RLuc virus was prepared by transfection of 293T cells with the plasmid pNLRLuc. Transfections were performed using the LipofectAMINE PLUS kit from Invitrogen (Carlsbad, Calif.) according to the manufacturer and the virus generated was titered in MT-2 cells. For susceptibility analyses, the titrated virus was used to infect MT-2 cells in the presence of compound, and after 5 days of incubation, cells were processed and quantitated for virus growth by the amount of expressed luciferase. Assay media was RPMI 1640 supplemented with 10% heat inactivated fetal bovine serum (FBS), 100 units/ml penicillin G/100 units/ml streptomycin, 10 mM HEPES buffer pH 7.55 and 2 mM L-glutamine. The results from at least 2 experiments were used to calculate the EC50 values. Luciferase was quantitated using the Dual Luciferase kit from Promega (Madison, Wis.). Susceptibility of viruses to compounds was determined by incubation in the presence of serial dilutions of the compound. The 50% effective concentration (EC50) was calculated by using the exponential form of the median effect equation where (Fa)=1/[1+(ED50/drug conc.)^m] (Johnson V A, Byington R T. Infectivity Assay. In Techniques in HIV Research. ed. Aldovini A, Walker B D. 71-76. New York: Stockton Press. 1990).
One may read the EC50 as the concentration at which the effect is half-maximal. In the case of `Cc1nc2cc3nn2c(c1[C@H](OC(C)(C)C)C(=O)O)-c1ccc(cc1)OCCCCCCOc1cc(F)ccc1-c1cccc-3c1` [Example 1, (2S)-2-(tert-butoxy)-2-{18-fluoro-4-methyl-21,28-dioxa-5,7,8-triazahexacyclo [27.2.2.1^6,^9.1^10,^14.0^2,^7.0^15,^20]pentatriaconta-1(31),2,4,6(35),8,10(34),11,13, 15(20),16,18,29,32-tridecaen-3-yl}acetic acid], the EC50 is 397 nM. In the case of `Cc1ccc2c(c1)OCCCCCOc1cc(F)ccc1-c1cccc(c1)-c1cc3nc(C)c([C@H](OC(C)(C)C)C(=O)O)c-2n3n1` [Example 20, (2S)-2-(tert-butoxy)-2-{25-fluoro-7, 13-dimethyl-16, 22-dioxa-3,4,6-triazahexacyclo[27.3.1.1^2,5.0^4,9.0^10,15.0^23,28]tetratriaconta-1(33),2,5(34),6,8,10,12,14, 23(28),24,26,29,31-tridecaen-8-yl}acetic acid] it was 2780 nM; in that of `Cc1nc2cc3nn2c(c1[C@H](OC(C)(C)C)C(=O)O)-c1ccc2c(c1)C(CCO2)OCCCCCCOc1cc(F)ccc1-c1cccc-3c1` (stereo partly drawn) [Example 22, (2S)-2-(tert-butoxy)-2-{18-fluoro-4-methyl-21,28,32-trioxa-5,7,8-triazaheptacyclo[27.6.2.1^6,9.1^10,14.0^2,7.0^15,20.0^33,37]nonatriaconta-1(35),2,4,6(39),8,10(38),11,13,15(20),16,18,33,36-tridecaen-3-yl}acetic acid], 1440 nM. For `Cc1nc2cc3nn2c(c1[C@H](OC(C)(C)C)C(=O)O)-c1ccc(cc1)OCC#CCOc1cc(F)ccc1-c1cccc-3c1` [Example 4, (2S)-2-(tert-butoxy)-2-{18-fluoro-4-methyl-21,26-dioxa-5,7,8-triazahexacyclo [25.2.2.1^6,^9.1^10,^14.0^2,^7.0^15,^20]tritriaconta-1(29),2,4,6(33),8,10(32),11,13, 15(20),16,18,27,30-tridecaen-23-yn-3-yl}acetic acid], the EC50 amounted to 281 nM. Consider `Cc1ccc2cc1OCC#CCOc1cc(F)ccc1-c1cccc(c1)-c1cc3nc(C)c([C@H](OC(C)(C)C)C(=O)O)c-2n3n1` [Example 13, (2S)-2-(tert-Butoxy)-2-{23-fluoro-7,13-dimethyl-15,20-dioxa-3,4,6-triazahexacyclo [25.3.1.1^2,^5.1^10,^14.0^4,^9.0^21,^26]tritriaconta-1(31),2,5(33),6,8,10,12,14(32), 21(26),22,24,27,29-tridecaen-17-yn-8-yl}acetic acid], for which the EC50 was determined as 288 nM. In the case of `Cc1ccc2cc1OC/C=C/COc1cc(F)ccc1-c1cccc(c1)-c1cc3nc(C)c([C@H](OC(C)(C)C)C(=O)O)c-2n3n1` [Example 9, (2S)-2-(tert-Butoxy)-2-[(17E)-23-fluoro-7,13-dimethyl-15,20-dioxa-3,4,6-triazahexacyclo [25.3.1.1^2,^5.1^10,^14.0^4,^9.0^21,^26]tritriaconta-1(31),2,5(33),6,8,10,12,14(32), 17,21(26),22,24,27,29-tetradecaen-8-yl]acetic acid] it was 489 nM. As for `Cc1nc2cc3nn2c(c1[C@H](OC(C)(C)C)C(=O)O)N1CCC(C)(CC1)OCCCC[C@H](C)Oc1ccc(C(=O)NCCc2ccc(F)cc2)cc1-c1cccc-3c1` [Example 25, (2S)-2-(tert-Butoxy)-2-[(22S)-17-{[2-(4-fluorophenyl)ethyl]carbamoyl}-4,22,28-trimethyl-21,27-dioxa-1,5,7,8-tetraazahexacyclo[26.2.2.1^6,9.1^10,14.0^2,7.0^15,20]tetratriaconta-2,4,6(34),8,10(33),11,13,15(20),16,18-decaen-3-yl]acetic acid], the EC50 was determined as 4 nM. In the case of `Cc1ccc2cc1OCc1cccc(c1)COc1cc(F)ccc1-c1cccc(c1)-c1cc3nc(C)c([C@H](OC(C)(C)C)C(=O)O)c-2n3n1` [Example 15, (2S)-2-(tert-Butoxy)-2-{26-fluoro-7,13-dimethyl-15,23-dioxa-3,4,6-triazaheptacyclo [28.3.1.1^2,^5.1^10,^14.1^17,^21.0^4,^9.0^24,^29]heptatriaconta-1(34),2,5(37),6,8,10,12,14(36), 17(35),18,20,24(29),25,27,30,32-hexadecaen-8-yl}acetic acid] it was 301 nM. As to `Cc1nc2cc3nn2c(c1[C@H](OC(C)(C)C)C(=O)O)-c1ccc(c2ccccc12)OCC#CCOc1cc(F)ccc1-c1cccc-3c1` [Example 7, (2S)-2-(tert-butoxy)-2-{18-fluoro-4-methyl-21,26-dioxa-5,7,8-triazaheptacyclo[25.6.2.1^6,9.1^10,14.0^2,7.0^15,20.0^28,33]heptatriaconta-1(34),2,4,6(37),8,10(36),11,13,15(20),16,18,27(35),28 (33),29,31-pentadecaen-23-yn-3-yl}acetic acid], the EC50 was found to be 12100 nM. As for `C=C1COc2cc(F)ccc2-c2cccc(c2)-c2cc3nc(C)c([C@H](OC(C)(C)C)C(=O)O)c(n3n2)-c2ccc(F)cc2OC1` [Example 19, (2S)-2-(tert-butoxy)-2-{13,23-difluoro-7-methyl-18-methylidene-16,20-dioxa-3,4,6-triazahexacyclo[25.3.1.1^2,5.0^4,9.0^10,15.0^21,26]dotriaconta-1(31),2,5(32),6,8,10,12,14,21(26),22,24,27,29-tridecaen-8-yl}acetic acid], the figure is 3590 nM; as for `Cc1nc2cc3nn2c(c1[C@H](OC(C)(C)C)C(=O)O)-c1ccc(cc1)OC/C=C/COc1cc(F)ccc1-c1cccc-3c1` [Example 2, (2S)-2-(tert-butoxy)-2-[(23E)-18-fluoro-4-methyl-21,26-dioxa-5,7,8-triazahexacyclo [25.2.2.1^6,^9.1^10,^14.0^2,^7.0^15,^20]tritriaconta-1(29),2,4,6(33),8,10(32),11,13, 15(20),16,18,23,27,30-tetradecaen-3-yl]acetic acid], 696 nM; as for `Cc1ccc2cc1OCCOCCOc1cc(F)ccc1-c1cccc(c1)-c1cc3nc(C)c([C@H](OC(C)(C)C)C(=O)O)c-2n3n1` [Example 17, (2S)-2-(tert-Butoxy)-2-{24-fluoro-7,13-dimethyl-15,18,21-trioxa-3,4,6-triazahexacyclo [26.3.1.1^2,^5.1^10,^14.0^4,^9.0^22,^27]tetratriaconta-1(32),2,5(34),6,8,10,12,14(33), 22(27),23,25,28,30-tridecaen-8-yl}acetic acid], 289 nM. In the case of `Cc1nc2cc3nn2c(c1[C@H](OC(C)(C)C)C(=O)O)N1CCC(C)(CC1)OCCCC[C@H](C)Oc1ccc(C(=O)N(C)CCc2ccc(F)cc2)cc1-c1cccc-3c1` [Example 26, (2S)-2-(tert-Butoxy)-2-[(22S)-17-{[2-(4-fluorophenyl)ethyl](methyl)carbamoyl}-4, 22, 28-trimethyl-21, 27-dioxa-1,5,7,8-tetraazahexacyclo[26.2.2.1^6,9.1^10,14.0^2,7.0^15,20]tetratriaconta-2,4,6(34),8,10(33),11,13,15(20),16,18-decaen-3-yl]acetic acid] it was 3 nM; in that of `Cc1nc2cc3nn2c(c1[C@H](OC(C)(C)C)C(=O)O)-c1ccc(c2ccccc12)OCc1cccc(c1)COc1cc(F)ccc1-c1cccc-3c1` [Example 6, (2S)-2-(tert-butoxy)-2-{18-fluoro-4-methyl-21,29-dioxa-5,7,8-triazaoctacyclo[28.6.2.1^6,9.1^10,14. 1^23,27.0^2,7.0^15,20.0^31,36]hentetraconta-1(37),2,4,6(41),8,10(40),11,13,15(20),16,18,23(39),24,26,30(38),31(36),32,34-octadecaen-3-yl}acetic acid], 20000 nM.

On to `Cc1nc2cc3nn2c(c1[C@H](OC(C)(C)C)C(=O)O)-c1ccc2c(c1)C(CCO2)OCCCCCOc1cc(F)ccc1-c1cccc-3c1` (stereo partly drawn) [Example 21, (2S)-2-(tert-Butoxy)-2-{18-fluoro-4-methyl-21,27,31-trioxa-5,7,8-triazaheptacyclo[26.6.2.1^6,9.1^10,14.0^2,7.0^15,20.0^32,36]octatriaconta-1(34),2,4,6(38),8,10(37),11,13,15(20),16,18,32,35-tridecaen-3-yl}acetic acid], for which the EC50 was found to be 695 nM.

Take `Cc1ccc2cc1OCCN(C(C)(C)C)CCOc1cc(F)ccc1-c1cccc(c1)-c1cc3nc(C)c([C@H](OC(C)(C)C)C(=O)O)c-2n3n1` [Example 14, (2S)-2-(tert-Butoxy)-2-{18-tert-butyl-24-fluoro-7,13-dimethyl-15,21-dioxa-3,4,6,18-tetraazahexacyclo [26.3.1.1^2,^5.1^10,^14.0^4,^9.0^22,^27]tetratriaconta-1(32),2,5(34),6,8,10,12,14(33), 22(27),23,25,28,30-tridecaen-8-yl}acetic acid]: the concentration giving a half-maximal response (EC50) amounted to 3250 nM. As for `Cc1ccc2cc1OC/C=C\COc1cc(F)ccc1-c1cccc(c1)-c1cc3nc(C)c([C@H](OC(C)(C)C)C(=O)O)c-2n3n1` [Example 11, (2S)-2-(tert-Butoxy)-2-[(17Z)-23-fluoro-7,13-dimethyl-15,20-dioxa-3,4,6-triazahexacyclo [25.3.1.1^2,^5.1^10,^14.0^4,^9.0^21,^26]tritriaconta-1(31),2,5(33),6,8,10,12,14(32), 17,21(26),22,24,27,29-tetradecaen-8-yl]acetic acid], the figure is 3310 nM.
